Experimental data reported in paper PMC6934184, “Selective DNA-PKcs inhibition extends the therapeutic index of localized radiotherapy and chemotherapy” (The Journal of Clinical Investigation, 2019).

Target: T1, PRKCQ (PKC theta) (Homo sapiens, UniProt Q04759)
T1 construct: purchased Thermo Fisher Scientific (Life Technologies) SelectScreen
Test: SelectScreen Z'LYTE
Type: biochemical
Procedure, shortened: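 Percent values come from Thermo SelectScreen profiling of NU5455, combining activity and binding assays. CSF1R was run in Z'LYTE format at Km app ATP, and CAMK1 in Adapta format with ATP listed at 10.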

T1 sequence (Q04759 whole entry): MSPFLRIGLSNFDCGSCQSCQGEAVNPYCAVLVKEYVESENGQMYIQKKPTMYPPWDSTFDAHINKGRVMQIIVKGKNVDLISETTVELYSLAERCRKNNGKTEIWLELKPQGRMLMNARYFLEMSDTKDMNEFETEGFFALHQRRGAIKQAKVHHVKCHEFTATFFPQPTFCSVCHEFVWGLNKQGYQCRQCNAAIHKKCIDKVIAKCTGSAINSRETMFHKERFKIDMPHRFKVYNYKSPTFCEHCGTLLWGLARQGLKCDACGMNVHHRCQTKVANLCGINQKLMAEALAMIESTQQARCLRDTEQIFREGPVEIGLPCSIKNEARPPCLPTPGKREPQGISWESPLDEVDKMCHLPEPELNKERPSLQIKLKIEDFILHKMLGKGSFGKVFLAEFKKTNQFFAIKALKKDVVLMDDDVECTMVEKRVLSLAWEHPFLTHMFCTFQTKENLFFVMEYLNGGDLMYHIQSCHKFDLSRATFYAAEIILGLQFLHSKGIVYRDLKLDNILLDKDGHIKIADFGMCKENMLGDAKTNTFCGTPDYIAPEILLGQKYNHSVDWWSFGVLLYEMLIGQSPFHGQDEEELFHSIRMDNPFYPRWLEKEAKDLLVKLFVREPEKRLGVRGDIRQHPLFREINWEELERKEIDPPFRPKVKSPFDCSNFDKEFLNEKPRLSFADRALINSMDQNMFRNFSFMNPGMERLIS

With `CN(C(=O)CN1CCOCC1)c1ccc2sc3c(-c4cccc5c(=O)cc(N6CC7CCC(C6)O7)oc45)cccc3c2c1` [NU5455] the inhibition at 1 µM was -3.7%.
